Results published in US20140081017A1, “Histone Deacetylase Inhibitors for Enhancing Activity of Antifungal Agents” (METHYLGENE INC., priority 2012, published 2014).
≈ marks a conversion by molar mass, not a printed value. Like-named read-outs stand apart in the source and are kept apart here.

Legend:
C. glabrata = test: Checkerboard FIC assay in combination with fluconazole (MIC alone and in combination, FICI); format: cell-based, Candida glabrata; settings: for FICI of combination resulting in fluconazole MIC of: 2 ug/mL / FICI of combination resulting in fluconazole MIC of: 4 ug/mL / FICI of combination resulting in fluconazole MIC of: 8 ug/mL: FICI calculated using a fluconazole MIC of 16 μg/mL; for FICI of combination resulting in fluconazole MIC of: 2 ug/mL (value in parenthesis) / FICI of combination resulting in fluconazole MIC of: 4 ug/mL (value in parenthesis) / FICI of combination resulting in fluconazole MIC of: 8 ug/mL (value in parenthesis): FICI using a fluconazole MIC of 128 μg/mL; for MIC: Nakaseomyces glabratus; for Concentration of Methylgene compound to synergize fluconazole MIC to 2 ug/mL / Concentration of Methylgene compound to synergize fluconazole MIC to 4 ug/mL / Concentration of Methylgene compound to synergize fluconazole MIC to 8 ug/mL: in combination with fluconazole; for Concentration of Methylgene compound to synergize fluconazole MIC to 2 ug/mL: fluconazole MIC lowered to 2 ug/mL; for Concentration of Methylgene compound to synergize fluconazole MIC to 4 ug/mL: fluconazole MIC lowered to 4 ug/mL; for Concentration of Methylgene compound to synergize fluconazole MIC to 8 ug/mL: fluconazole MIC lowered to 8 ug/mL; for Multiple of compound MIC to synergize fluconazole MIC to 2 ug/mL / Multiple of compound MIC to synergize fluconazole MIC to 4 ug/mL / Multiple of compound MIC to synergize fluconazole MIC to 8 ug/mL: concentration in combination as multiple of the compound's MIC alone; for Multiple of compound MIC to synergize fluconazole MIC to 2 ug/mL: fluconazole MIC 2 ug/mL; for Multiple of compound MIC to synergize fluconazole MIC to 4 ug/mL: fluconazole MIC 4 ug/mL; for Multiple of compound MIC to synergize fluconazole MIC to 8 ug/mL: fluconazole MIC 8 ug/mL
Procedure, shortened: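 C. glabrata was tested by CLSI broth microdilution checkerboard, crossing 2-fold dilutions of compound with 2-fold dilutions of fluconazole. The medium was RPMI with 0.165 M MOPS at pH 7.0, inoculated from a 0.5 McFarland suspension diluted 1:100, then incubated about 48 h at 35 °C. Single-agent MICs gave the FIC and FICI values.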

Candida parapsilosis = test: Minimal Inhibitory Concentration (MIC) assay, broth microdilution per CLSI; format: cell-based; settings: Lodderomyces parapsilosis, read-out: Minimum Inhibitory Concentrations against Yeast Isolates, Candida parapsilosis;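 further: two read times 24 hr and 48 hr of incubation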
Procedure, shortened: (§1)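 Steps: overnight yeast growth on Sabouraud dextrose agar at 35° C; 0.5 McFarland saline suspension diluted 1:100 in RPMI (0.165 M MOPS, pH 7.0); inoculation into twofold compound dilutions; incubation 24-48 hr at 35° C; MIC scored as lowest concentration without visible growth.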

Candida glabrata = test: as above; format: cell-based; settings: Nakaseomyces glabratus, read-out: Minimum Inhibitory Concentrations against Yeast Isolates, Candida glabrata;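 further: two read times 24 hr and 48 hr of incubation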
Procedure, shortened: as §1

Candida albicans = test: as above; format: cell-based; settings: Candida albicans, read-out: Minimum Inhibitory Concentrations against Yeast Isolates, Candida albicans;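 further: two read times 24 hr and 48 hr of incubation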
Procedure, shortened: as §1

[1] = MIC of the example compound alone against C. glabrata in the checkerboard assay, approximately 48 hr, read-out: Methylgene MIC
[2] = test compound alone, C. glabrata, approx. 48 hr at 35° C., read-out: Compound MIC
[3] = 24 hr reading (first value of cell 24 hr/48 hr)
[4] = 48 hr reading (second value of cell 24 hr/48 hr)

| Structure (SMILES) | FICI of combination resulting in fluconazole MIC of: 2 ug/mL (C. glabrata; C. glabrata) | FICI of combination resulting in fluconazole MIC of: 4 ug/mL (C. glabrata; C. glabrata) | FICI of combination resulting in fluconazole MIC of: 8 ug/mL (C. glabrata; C. glabrata) | FICI of combination resulting in fluconazole MIC of: 2 ug/mL (value in parenthesis) (C. glabrata; C. glabrata) | FICI of combination resulting in fluconazole MIC of: 4 ug/mL (value in parenthesis) (C. glabrata; C. glabrata) | FICI of combination resulting in fluconazole MIC of: 8 ug/mL (value in parenthesis) (C. glabrata; C. glabrata) | MIC (C. glabrata; [1]) | MIC (C. glabrata; [2]) | Concentration of Methylgene compound to synergize fluconazole MIC to 2 ug/mL (C. glabrata; C. glabrata) | Concentration of Methylgene compound to synergize fluconazole MIC to 4 ug/mL (C. glabrata; C. glabrata) | Concentration of Methylgene compound to synergize fluconazole MIC to 8 ug/mL (C. glabrata; C. glabrata) | MIC (Candida parapsilosis; [3]) | MIC (Candida parapsilosis; [4]) | MIC (Candida glabrata; [3]) | MIC (Candida glabrata; [4]) | MIC (Candida albicans; [3]) | MIC (Candida albicans; [4]) | Multiple of compound MIC to synergize fluconazole MIC to 2 ug/mL (C. glabrata) | Multiple of compound MIC to synergize fluconazole MIC to 4 ug/mL (C. glabrata) | Multiple of compound MIC to synergize fluconazole MIC to 8 ug/mL (C. glabrata) |
| --- | --- | --- | --- | --- | --- | --- | --- | --- | --- | --- | --- | --- | --- | --- | --- | --- | --- | --- | --- | --- |
| Cn1cnc(CNC(=O)c2ccc(CCCCc3ccc(CC(=O)NO)cc3)cc2)c1 [Example 23, 4-(4-(4-(2-(hydroxyamino)-2-oxoethyl)phenyl)butyl)-N-((1-methyl-1H-imidazol-4-yl)methyl)benzamide] | 0.313 | 0.250 | 0.375 | 0.266 | 0.156 | 0.188 | > 8 mg/L | > 8 mg/L | 4 mg/L | 2 mg/L | 2 mg/L | > 8 mg/L | > 8 mg/L | 8 mg/L (≈ 19 µM) | > 8 mg/L | > 8 mg/L | > 8 mg/L |  |  |  |
| O=C(Cc1ccc(CCCCc2ccc(C(=O)N3CCOCCOCCOCCOCCOCC3)cc2)cc1)NO [Example 24, 2-(4-(4-(4-(1,4,7,10,13-pentaoxa-16-azacyclooctadecane-16-carbonyl)phenyl)butyl)phenyl)-N-hydroxyacetamide] | 0.313 | 0.250 | 0.313 | 0.266 | 0.156 | 0.125 | > 16 mg/L | > 16 mg/L | 8 mg/L | 4 mg/L | 2 mg/L | > 64 mg/L | > 64 mg/L | 16 mg/L (≈ 27.9 µM) | 64 mg/L (≈ 112 µM) | > 64 mg/L | > 64 mg/L |  |  |  |
| O=C(Cc1ccc(CCCC(O)c2ccccc2)cc1)NO (stereo not shown) [Example 25, N-hydroxy-2-(4-(4-hydroxy-4-phenylbutyl)phenyl)acetamide] | 0.563 | 0.375 | 0.375 | 0.516 | 0.281 | 0.188 | > 16 mg/L | > 16 mg/L | 16 mg/L | 8 mg/L | 4 mg/L | > 64 mg/L | > 64 mg/L | 16 mg/L (≈ 53.4 µM) | 64 mg/L (≈ 214 µM) | > 64 mg/L | > 64 mg/L |  |  |  |
| O=C(Cc1ccc(CCCC(F)c2ccccc2)cc1)NO (stereo not shown) [Example 26, 2-(4-(4-fluoro-4-phenylbutyl)phenyl)-N-hydroxyacetamide] | 0.313 | 0.250 | 0.313 | 0.266 | 0.156 | 0.125 | 8 mg/L | 8 mg/L | 2 mg/L | 1 mg/L | 0.5 mg/L | 4 mg/L (≈ 13.3 µM) | 8 mg/L (≈ 26.5 µM) | 2 mg/L (≈ 6.64 µM) | 8 mg/L (≈ 26.5 µM) | 4 mg/L (≈ 13.3 µM) | 8 mg/L (≈ 26.5 µM) | (¼x) | (⅛x) | ( 1/16x) |
| O=C(Cc1ccc(CCC/C(=N\O)c2ccccc2)cc1)NO [Example 27, (E)-N-hydroxy-2-(4-(4-(hydroxyimino)-4-phenylbutyl)phenyl) acetamide] | 0.313 | 0.375 | 0.375 | 0.266 | 0.281 | 0.188 | 16 mg/L | 16 mg/L | 4 mg/L | 4 mg/L | 2 mg/L | > 64 mg/L | > 64 mg/L | 8 mg/L (≈ 25.6 µM) | 16 mg/L (≈ 51.2 µM) | 64 mg/L (≈ 205 µM) | 64 mg/L (≈ 205 µM) | (¼x) | (¼x) | (⅛x) |
| O=C(Cc1ccc(CCCC(=O)c2ccccc2)cc1)NO [Example 28, N-hydroxy-2-(4-(4-oxo-4-phenylbutyl)phenyl)acetamide] | 0.313 | 0.250 | 0.313 | 0.266 | 0.156 | 0.125 | 16 mg/L | 16 mg/L | 4 mg/L | 2 mg/L | 1 mg/L | > 32 mg/L | > 32 mg/L | 8 mg/L (≈ 26.9 µM) | 16 mg/L (≈ 53.8 µM) | 32 mg/L (≈ 108 µM) | 32 mg/L (≈ 108 µM) | (¼x) | (⅛x) | ( 1/16x) |
| O=C(Cc1ccc(CCCC(F)(F)c2ccccc2)cc1)NO [Example 29, 2-(4-(4,4-difluoro-4-phenylbutyl)phenyl)-N-hydroxyacetamide] | 0.563 | 0.625 | 0.500 | 0.516 | 0.531 | 0.313 | 1 mg/L | 1 mg/L | 0.5 mg/L | 0.5 mg/L | 0.25 mg/L | 1 mg/L (≈ 3.13 µM) | 2 mg/L (≈ 6.26 µM) | 0.5 mg/L (≈ 1.57 µM) | 1 mg/L (≈ 3.13 µM) | 1 mg/L (≈ 3.13 µM) | 2 mg/L (≈ 6.26 µM) | (½x) | (½x) | (¼x) |
| CC(CCCc1ccc(CC(=O)NO)cc1)c1ccccc1 (stereo not shown) [Example 30, N-hydroxy-2-(4-(4-phenylpentyl)phenyl)acetamide] | 0.563 | 0.365 | 0.490 | 0.516 | 0.271 | 0.303 | 0.5 mg/L | 0.5 mg/L | 0.25 mg/L | 0.12 mg/L | 0.12 mg/L | 0.12 mg/L (≈ 0.403 µM) | 0.25 mg/L (≈ 0.841 µM) | 0.25 mg/L (≈ 0.841 µM) | 0.5 mg/L (≈ 1.68 µM) | 0.5 mg/L (≈ 1.68 µM) | 0.5 mg/L (≈ 1.68 µM) | (½x) | (¼x) | (¼x) |
